Tests used:
[1] = molecular target: T1, association of the viral matrix protein (p 17) with karyopherin α (Human immunodeficiency virus type 1 group M subtype B, UniProt P04591); test: cell free assay of PIC binding to karyopherin α (HIV DNA in the Kα fraction); conditions: cytoplasmic extracts of HIV-1 infected human monocyte-derived macrophages; FIG. 1
T1 construct: The PIC is comprised of a number of viral proteins including MA (p17); endogenous in cells; host or cells: cytoplasmic extracts of human monocyte-derived macrophages infected with HIV-1 (virus-made protein in the PIC)
Source text: The inhibition of a molecular target by ITI-367 is illustrated in FIG. 1. The molecular target for nuclear entry of HIV-1 is the association of the viral matrix protein (p 17) carrying the nuclear localization sequences, with the intracellular protein karyopherin α. To validate the activity of ITI-367, a cell free assay was used whereby human monocyte-derived macrophages collected from fresh blood samples were infected with HIV-1. At the predetermined time cells were lysed and the cytoplasmic extracts collected. The extracts contain HIV-1 pre-integration complexes (PIC) that represent the structure within which the HIV-1 cDNA is imported into the nucleus. The PIC is comprised of a number of viral proteins including MA (p17). […] Therefore, this is a cell free assay. The extent of binding was measured by evaluating the levels of HIV DNA found in the Kα fraction in the presence or absence of test compound.

ADA strain of HIV-1 = test: inhibition of HIV-1 infection in monocyte-derived macrophages; format: cell-based; conditions: 10, 1, 0.1, 0.01 μM; over a two week period; FIG. 2
Method: Macrophages were prepared as described above. After a week of culture in M-CSF, cells were washed several times in RPMI and pre-incubated in complete (NHS, pen/strep, L-glutamine) medium with compound ITI-367 in appropriate concentration overnight (10, 1, 0.1, and 0.01 μM). [ITI-367 having been dissolved in DMSO at 10 mM concentration which was used as a stock solution (stored at −70° C.). From the stock solutions a 50 μM solution of compound in RPMI was prepared and stored at 4° C.]. After overnight incubation with compound, cells were infected with 500,000 cpm (RT activity) of the ADA strain of HIV-1 in 500 μl of RPMI with or without the compound. Two hours after infection, cells were washed with RPMI and incubated in fresh complete medium with the appropriate concentration of compound. Every 3-4 days, half of the medium was collected and used to quantify the level of virus production. Cultures were supplemented with additional medium. Infected macrophages were maintained for 2-3 weeks.

[2] = tested on: HIV-1 CCR5 clinical isolate; test: inhibition of HIV-1 infection of T lymphocytes (tonsil cells), p24 ELISA; format: cell-based
Method: T lymphocytes were isolated from tonsil tissue 24 hours post-surgical removal and then frozen. Aliquots of all were thawed on day of testing. There was no exogenous stimulation of the tonsil cells. The virus was a CCR5 clinical isolate at an approximate MOI of 1:40,000. Cells were incubated in the presence of ITI-367 for 19 hours prior to a 2.5 hour infection, at which time the virus inoculum was removed followed by two complete media exchanges. Cell culture media was Iscove's Media with 2 mM L-Glutamine, 100 U/ml Penicillin, 100 ug/ml Streptomycin, and 8% heat-inactivated human serum AB. The drug concentrations used were 20 uM, 10 uM, 1 uM and 0.1 uM, prepared from a 50 mM DMSO stock. A no drug infection control (media only) was also evaluated in parallel. Replicates of four or six cultures were used to assess virus production from ITI-367 treated or control samples, respectively. Virus production was evaluated on days 3, 6, 10, 13, & 17 post-infection, by specific ELISA for HIV-1 core antigen (p24). Also, in FIG. 4, virus production was evaluated as a function of drug concentrations at 0, 0.1, 0.5, 1, 5 and 10 μM.

[3] = tested on: HIV-1 CCR5 clinical isolate; test: ITI-367 combination assay, HIV-1 infectivity in tonsil cells, p24 ELISA; format: cell-based; conditions: combined with NRTi (AZT, d4T), NNRTi (efavirenz), Pi (saquinavir, nelfinavir), FIG. 5-9
Method: The inhibitory potential of ITI-367 was tested using HIV-1 infectivity assays in combination with different FDA-approved drugs. […] Tonsil cells, isolated 24 hours post-surgical removal of tonsil tissue then frozen, were used as the target cells. Aliquots of the cells were thawed on the day of testing. There was no exogenous stimulation of the tonsil cells. The virus was a CCR5 clinical isolate at an approximate MOI of 1:40,000. Cells were incubated in the presence of drug for 17 hours prior to a 3.5 hour infection, at which time the virus inoculum was removed through three complete media exchanges. The cells were in the presence of drug before, during, and after all media removals. […]
Cells were cultured at 37° C. and 5% CO2 Samples (150 μl) were harvested on days 3, 5, 7, and 10 post-infection for HIV-1 p24 content analysis by ELISA. […] Uninfected, untreated cells were counted at each sampling to monitor tonsil cell growth kinetics.

COc1ccccc1-c1noc(=O)n1-c1cccc(C(F)(F)F)c1 [ITI-367]
inhibition of association of PIC (MA p17) with karyopherin α [1]: inhibition | inhibition of HIV-1 infection in monocyte-derived macrophages (ADA strain of HIV-1): inhibition of HIV-1 infection | inhibition of HIV-1 infection of T lymphocytes ([2]; 20, 10, 1, 0.1 uM, p24 over a seventeen day period, FIG. 3): inhibition of HIV-1 infection | inhibition of replication of HIV-1 in Primary Lymphocytes ([2]; virus production as a function of drug concentration 0-10 μM, FIG. 4): inhibition | combination effect on inhibition of HIV-1 replication [3]: synergistic effect

Source: patent publication US20060264475A1, “COMPOUNDS, COMPOSITIONS AND METHODS FOR INHIBITING OR TREATING HIV-1” (CYTOKINE PHARMASCIENCES, INC., priority 2004, published 2006)
